The assay concerns the target T1, Amine oxidase [flavin-containing] A (Homo sapiens, UniProt P21397).
T1 sequence (P21397 whole entry): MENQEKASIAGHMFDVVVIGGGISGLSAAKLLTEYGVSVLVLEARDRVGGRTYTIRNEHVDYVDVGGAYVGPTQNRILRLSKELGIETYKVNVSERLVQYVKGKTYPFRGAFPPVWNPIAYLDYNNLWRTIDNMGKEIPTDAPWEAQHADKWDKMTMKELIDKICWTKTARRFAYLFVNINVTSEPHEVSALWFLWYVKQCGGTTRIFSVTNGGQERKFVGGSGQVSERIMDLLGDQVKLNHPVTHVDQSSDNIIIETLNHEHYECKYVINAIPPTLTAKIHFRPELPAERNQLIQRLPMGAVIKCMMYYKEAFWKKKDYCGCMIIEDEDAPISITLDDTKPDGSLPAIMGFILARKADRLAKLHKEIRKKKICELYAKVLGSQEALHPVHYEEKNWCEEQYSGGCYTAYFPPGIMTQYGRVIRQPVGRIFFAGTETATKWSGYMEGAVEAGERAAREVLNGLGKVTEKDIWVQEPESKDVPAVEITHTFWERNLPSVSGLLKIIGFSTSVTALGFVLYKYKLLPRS
As to the kind of experiment: Inhibition human liver MAOA activity.

Results on five compounds are retold here after BindingDB's records for doi:10.1016/j.bmcl.2006.10.063 (Astrazeneca R&D Boston, 2007).

Structures are written as SMILES.

In general, Ki refers to a dissociation constant, usually derived from enzyme kinetics or from competition with a known ligand. Lower therefore signals tighter binding.

Take `Cc1cc(-c2ccc(N3C[C@H](Cn4ccnn4)OC3=O)cc2F)on1` [(5R)-5-((1H-1,2,3-triazol-1-yl)methyl)-3-(3-fluoro-4-(3-methylisoxazol-5-yl)phenyl)oxazolidin-2-one]: the affinity, expressed as Ki, was 2.9 µM. Consider `CC(=O)NC[C@H]1CN(c2ccc(-c3cc(C)no3)c(F)c2)C(=O)O1` [N-(((S)-3-(3-fluoro-4-(3-methylisoxazol-5-yl)phenyl)-2-oxooxazolidin-5-yl)methyl)acetamide], for which the Ki came out at 0.95 µM. `CC(=O)NC[C@H]1CN(c2ccc(N3CCOCC3)c(F)c2)C(=O)O1` [Zyvox] had a Ki of 20 µM. As for `Cc1cn(C[C@H]2CN(c3ccc(-c4cc(C)no4)c(F)c3)C(=O)O2)nn1` [(5R)-3-(3-fluoro-4-(3-methylisoxazol-5-yl)phenyl)-5-((4-methyl-1H-1,2,3-triazol-1-yl)methyl)oxazolidin-2-one], the Ki came to 22.6 µM.

`Cc1cc(-c2ccc(N3C[C@H](CNc4ccon4)OC3=O)cc2F)on1` [(5S)-3-(3-fluoro-4-(3-methylisoxazol-5-yl)phenyl)-5-((isoxazol-3-ylamino)methyl)oxazolidin-2-one] showed a Ki of 0.42 µM.
